Experimental data taken from PubChem BioAssay (NCI).
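Assay format: 96-well plates, 48-hour exposure. At the TGI there is no net growth.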

Assays:
Assay in all cases: inhibition of tumour cell growth, NCI panel, 48 h
MALME-3M melanoma = system: MALME-3M melanoma
SF-295 CNS = system: SF-295 CNS
CAKI-1 renal = system: CAKI-1 renal
KM20L2 colon = system: KM20L2 colon
TK-10 renal = system: TK-10 renal
SN12C renal = system: SN12C renal
M19-MEL melanoma = system: M19-MEL melanoma
SNB-19 CNS = system: SNB-19 CNS
SK-MEL-2 melanoma = system: SK-MEL-2 melanoma
NCI-H23 lung = system: NCI-H23 lung
IGROV1 ovarian = system: IGROV1 ovarian
A549 NSCLC = system: A549 NSCLC
SK-MEL-28 melanoma = system: SK-MEL-28 melanoma
COLO 205 colon = system: COLO 205 colon
SR leukemia = system: SR leukemia
DMS 114 small cell lung = system: DMS 114 small cell lung
SF-539 CNS = system: SF-539 CNS
LXFL 529 NSCLC = system: LXFL 529 NSCLC
HCC-2998 colon = system: HCC-2998 colon
UACC-62 melanoma = system: UACC-62 melanoma
HOP-62 NSCLC = system: HOP-62 NSCLC
RXF 393 renal = system: RXF 393 renal
SW-620 colon = system: SW-620 colon
DLD-1 colon = system: DLD-1 colon
CCRF-CEM leukemia = system: CCRF-CEM leukemia
786-0 renal = system: 786-0 renal
RXF-631 renal = system: RXF-631 renal
HT29 colon = system: HT29 colon
M14 melanoma = system: M14 melanoma
MOLT-4 leukemia = system: MOLT-4 leukemia
K-562 leukemia = system: K-562 leukemia
OVCAR-3 ovarian = system: OVCAR-3 ovarian
NCI-H226 lung = system: NCI-H226 lung
ACHN renal = system: ACHN renal
KM12 colon = system: KM12 colon
LOX IMVI melanoma = system: LOX IMVI melanoma
U251 CNS = system: U251 CNS
UACC-257 melanoma = system: UACC-257 melanoma
NCI-H460 lung = system: NCI-H460 lung
SF-268 CNS = system: SF-268 CNS
OVCAR-4 ovarian = system: OVCAR-4 ovarian
OVCAR-8 ovarian = system: OVCAR-8 ovarian
HCT-15 colon = system: HCT-15 colon
UO-31 renal = system: UO-31 renal
HCT-116 colon = system: HCT-116 colon
SK-OV-3 ovarian = system: SK-OV-3 ovarian
HL-60(TB) leukemia = system: HL-60(TB) leukemia
SNB-78 CNS = system: SNB-78 CNS
EKVX NSCLC = system: EKVX NSCLC
OVCAR-5 ovarian = system: OVCAR-5 ovarian
HOP-18 NSCLC = system: HOP-18 NSCLC
RPMI-8226 leukemia = system: RPMI-8226 leukemia
XF 498 CNS = system: XF 498 CNS
HOP-92 NSCLC = system: HOP-92 NSCLC
NCI-H522 lung = system: NCI-H522 lung
A498 renal = system: A498 renal
SNB-75 CNS = system: SNB-75 CNS
SK-MEL-5 melanoma = system: SK-MEL-5 melanoma
DU-145 prostate = system: DU-145 prostate
PC-3 prostate = system: PC-3 prostate
MDA-N = system: MDA-N
HS 578T breast = system: HS 578T breast
MDA-MB-435 = system: MDA-MB-435
BT-549 breast = system: BT-549 breast
MCF7 breast = system: MCF7 breast
NCI/ADR-RES ovarian = system: NCI/ADR-RES ovarian

Measured: TGI

COc1ccc(/C=C/C(=O)c2sc(NC(=S)NC(=O)c3ccc(Cl)cc3)nc2C)cc1OC
39.5 µM: UACC-62 melanoma
96.8 µM: K-562 leukemia
62 µM: RPMI-8226 leukemia
88.1 µM: CCRF-CEM leukemia
> 100 µM: MALME-3M melanoma | SF-295 CNS | CAKI-1 renal | KM20L2 colon | TK-10 renal | SN12C renal | M19-MEL melanoma | SNB-19 CNS | SK-MEL-2 melanoma | NCI-H23 lung | IGROV1 ovarian | A549 NSCLC | SK-MEL-28 melanoma | COLO 205 colon | SR leukemia | DMS 114 small cell lung | SF-539 CNS | LXFL 529 NSCLC | HCC-2998 colon | HOP-62 NSCLC | RXF 393 renal | SW-620 colon | DLD-1 colon | 786-0 renal | RXF-631 renal | HT29 colon | M14 melanoma | MOLT-4 leukemia | OVCAR-3 ovarian | NCI-H226 lung | ACHN renal | KM12 colon | LOX IMVI melanoma | U251 CNS | UACC-257 melanoma | NCI-H460 lung | SF-268 CNS | OVCAR-4 ovarian | OVCAR-8 ovarian | HCT-15 colon | UO-31 renal | HCT-116 colon | SK-OV-3 ovarian | HL-60(TB) leukemia | SNB-78 CNS | EKVX NSCLC | OVCAR-5 ovarian | HOP-18 NSCLC | XF 498 CNS

CCCCCCCCCCCCCC(=O)NCO
> 100 µM: MALME-3M melanoma | SF-295 CNS | KM20L2 colon | TK-10 renal | HOP-92 NSCLC | SN12C renal | M19-MEL melanoma | SNB-19 CNS | SK-MEL-2 melanoma | NCI-H23 lung | IGROV1 ovarian | A549 NSCLC | SK-MEL-28 melanoma | NCI-H522 lung | COLO 205 colon | DMS 114 small cell lung | SF-539 CNS | LXFL 529 NSCLC | HCC-2998 colon | UACC-62 melanoma | A498 renal | HOP-62 NSCLC | RXF 393 renal | SW-620 colon | DLD-1 colon | CCRF-CEM leukemia | 786-0 renal | RXF-631 renal | HT29 colon | M14 melanoma | OVCAR-3 ovarian | NCI-H226 lung | ACHN renal | KM12 colon | LOX IMVI melanoma | U251 CNS | UACC-257 melanoma | NCI-H460 lung | SF-268 CNS | OVCAR-4 ovarian | OVCAR-8 ovarian | HCT-15 colon | UO-31 renal | SNB-75 CNS | HCT-116 colon | SK-OV-3 ovarian | HL-60(TB) leukemia | SNB-78 CNS | SK-MEL-5 melanoma | EKVX NSCLC | OVCAR-5 ovarian | HOP-18 NSCLC | RPMI-8226 leukemia | XF 498 CNS

C=C=C(Sc1ccccc1)C(C)(C)O
> 100 µM: MALME-3M melanoma | SF-295 CNS | KM20L2 colon | TK-10 renal | HOP-92 NSCLC | SN12C renal | M19-MEL melanoma | SNB-19 CNS | SK-MEL-2 melanoma | NCI-H23 lung | IGROV1 ovarian | SK-MEL-28 melanoma | NCI-H522 lung | COLO 205 colon | SR leukemia | SF-539 CNS | LXFL 529 NSCLC | HCC-2998 colon | DU-145 prostate | UACC-62 melanoma | A498 renal | RXF 393 renal | SW-620 colon | DLD-1 colon | CCRF-CEM leukemia | 786-0 renal | RXF-631 renal | HT29 colon | M14 melanoma | MOLT-4 leukemia | K-562 leukemia | OVCAR-3 ovarian | NCI-H226 lung | ACHN renal | KM12 colon | LOX IMVI melanoma | U251 CNS | UACC-257 melanoma | NCI-H460 lung | SF-268 CNS | OVCAR-4 ovarian | OVCAR-8 ovarian | HCT-15 colon | UO-31 renal | SNB-75 CNS | HCT-116 colon | SK-OV-3 ovarian | HL-60(TB) leukemia | OVCAR-5 ovarian | HOP-18 NSCLC | RPMI-8226 leukemia | XF 498 CNS

COc1ccc(/C=C2\CCC(CN3CCOCC3)C2=O)cc1 (stereo not given)
5.54 µM: BT-549 breast
35.5 µM: NCI-H226 lung
3.04 µM: LXFL 529 NSCLC
3.11 µM: 786-0 renal
41.3 µM: NCI-H460 lung
7.35 µM: OVCAR-8 ovarian
12.3 µM: SN12C renal
16.4 µM: SF-268 CNS
2.39 µM: NCI-H522 lung
30.5 µM: M19-MEL melanoma | SNB-75 CNS
13.5 µM: KM20L2 colon
6.02 µM: K-562 leukemia
6.29 µM: MOLT-4 leukemia
31.2 µM: U251 CNS
33.3 µM: HOP-62 NSCLC
9.36 µM: OVCAR-3 ovarian
4.02 µM: DU-145 prostate
26 µM: SNB-19 CNS
15.3 µM: UO-31 renal
32.1 µM: SF-295 CNS
18.3 µM: HOP-18 NSCLC
30 µM: SK-OV-3 ovarian
5.26 µM: M14 melanoma
21.1 µM: EKVX NSCLC
10.9 µM: HCC-2998 colon
12.7 µM: SK-MEL-5 melanoma
16.2 µM: KM12 colon
14.4 µM: NCI-H23 lung
6.42 µM: MALME-3M melanoma
11.2 µM: HL-60(TB) leukemia
4.15 µM: CAKI-1 renal
5.97 µM: SR leukemia
13 µM: SF-539 CNS
> 21.3 µM: CCRF-CEM leukemia
11.7 µM: PC-3 prostate | ACHN renal
9.64 µM: TK-10 renal
6.65 µM: HOP-92 NSCLC
7.09 µM: DMS 114 small cell lung
3.12 µM: RXF 393 renal
21.4 µM: A498 renal
19.5 µM: OVCAR-5 ovarian
3.86 µM: SW-620 colon
5.38 µM: COLO 205 colon
3.57 µM: RPMI-8226 leukemia
10.1 µM: LOX IMVI melanoma
9.58 µM: MCF7 breast
7.71 µM: SK-MEL-28 melanoma
24.5 µM: UACC-62 melanoma
11.3 µM: IGROV1 ovarian
9.69 µM: XF 498 CNS
9.66 µM: SK-MEL-2 melanoma
5.23 µM: NCI/ADR-RES ovarian
5.73 µM: HT29 colon
20.8 µM: A549 NSCLC
43.5 µM: RXF-631 renal
> 100 µM: HS 578T breast
3.97 µM: MDA-MB-435
6.2 µM: HCT-15 colon
5.94 µM: UACC-257 melanoma
5.83 µM: MDA-N
24.8 µM: DLD-1 colon
24.1 µM: OVCAR-4 ovarian
27 µM: SNB-78 CNS

N#CNC(=NCCO)NCCO
> 100 µM: MALME-3M melanoma | SF-295 CNS | CAKI-1 renal | KM20L2 colon | SN12C renal | M19-MEL melanoma | SNB-19 CNS | SK-MEL-2 melanoma | IGROV1 ovarian | A549 NSCLC | SK-MEL-28 melanoma | NCI-H522 lung | COLO 205 colon | SR leukemia | DMS 114 small cell lung | SF-539 CNS | LXFL 529 NSCLC | HCC-2998 colon | UACC-62 melanoma | A498 renal | HOP-62 NSCLC | SW-620 colon | DLD-1 colon | CCRF-CEM leukemia | RXF-631 renal | HT29 colon | M14 melanoma | MOLT-4 leukemia | OVCAR-3 ovarian | NCI-H226 lung | ACHN renal | KM12 colon | LOX IMVI melanoma | U251 CNS | UACC-257 melanoma | NCI-H460 lung | SF-268 CNS | OVCAR-4 ovarian | OVCAR-8 ovarian | HCT-15 colon | UO-31 renal | SNB-75 CNS | HCT-116 colon | SK-OV-3 ovarian | HL-60(TB) leukemia | SNB-78 CNS | EKVX NSCLC | OVCAR-5 ovarian | HOP-18 NSCLC | RPMI-8226 leukemia | XF 498 CNS
